Source: ChEMBL document CHEMBL4622979, “Non-rigid Diarylmethyl Analogs of Baloxavir as Cap-Dependent Endonuclease Inhibitors of Influenza Viruses” (J Med Chem, 2020)

How the values were obtained:
[1] = Oral bioavailability in CD1 mouse assessed as (12aR)-12-[(S)-(3,4-Difluorophenyl)(phenyl)methyl]-7-hydroxy3,4,12,12a-tetrahydro-1H-[1,4]oxazino[3,4-c]pyrido[2,1-f ][1,2,4]triazine-6,8-dione level at 15 mg/kg administered as single dose by LC-MS/MS analysis; format: ADME, organism-based; conditions: in vivo
[2] = Cmax in CD1 mouse plasma assessed as (12aR)-12-[(S)-(3,4-Difluorophenyl)(phenyl)methyl]-7-hydroxy3,4,12,12a-tetrahydro-1H-[1,4]oxazino[3,4-c]pyrido[2,1-f ][1,2,4]triazine-6,8-dione level at 15 mg/kg, po administered as single dose by LC-MS/MS analysis; format: ADME, organism-based; parameters: dose 15 mg/kg, route oral; conditions: in vivo
[3] = AUClast in CD1 mouse plasma assessed as (12aR)-12-[(S)-(3,4-Difluorophenyl)(phenyl)methyl]-7-hydroxy3,4,12,12a-tetrahydro-1H-[1,4]oxazino[3,4-c]pyrido[2,1-f ][1,2,4]triazine-6,8-dione level at 15 mg/kg, po administered as single dose by LC-MS/MS analysis; format: ADME, organism-based; parameters: dose 15 mg/kg, route oral, time 0 - last; conditions: in vivo
[4] = Cmax in CD1 mouse lung assessed as (12aR)-12-[(S)-(3,4-Difluorophenyl)(phenyl)methyl]-7-hydroxy3,4,12,12a-tetrahydro-1H-[1,4]oxazino[3,4-c]pyrido[2,1-f ][1,2,4]triazine-6,8-dione level at 15 mg/kg, po administered as single dose by LC-MS/MS analysis; format: ADME, organism-based; parameters: dose 15 mg/kg, route oral; conditions: in vivo
[5] = AUClast in CD1 mouse lung assessed as (12aR)-12-[(S)-(3,4-Difluorophenyl)(phenyl)methyl]-7-hydroxy3,4,12,12a-tetrahydro-1H-[1,4]oxazino[3,4-c]pyrido[2,1-f ][1,2,4]triazine-6,8-dione level at 15 mg/kg, po administered as single dose by LC-MS/MS analysis; format: ADME, organism-based; conditions: in vivo
[6] = Ratio of Cmax in CD1 mouse lung to plasma assessed as (12aR)-12-[(S)-(3,4-Difluorophenyl)(phenyl)methyl]-7-hydroxy3,4,12,12a-tetrahydro-1H-[1,4]oxazino[3,4-c]pyrido[2,1-f ][1,2,4]triazine-6,8-dione level at 15 mg/kg, po administered as single dose by LC-MS/MS analysis; format: ADME, organism-based; conditions: other tissue
[7] = Ratio of AUClast in CD1 mouse lung to plasma assessed as (12aR)-12-[(S)-(3,4-Difluorophenyl)(phenyl)methyl]-7-hydroxy3,4,12,12a-tetrahydro-1H-[1,4]oxazino[3,4-c]pyrido[2,1-f ][1,2,4]triazine-6,8-dione level at 15 mg/kg, po administered as single dose by LC-MS/MS analysis; format: ADME, organism-based; conditions: other tissue
[8] = Stability in simulated gastric fluid assessed as parent compound remaining at 1 uM measured after 4 hrs at pH 1.2 by LC-MS/MS analysis; format: physicochemical; conditions: read-out: Stability
[9] = Stability in simulated intestinal fluid assessed as parent compound remaining at 1 uM measured after 4 hrs at pH 1.2 by LC-MS/MS analysis; format: physicochemical; conditions: read-out: Stability

COC(=O)OCOc1c2n(ccc1=O)N([C@@H](c1ccccc1)c1ccc(F)c(F)c1)[C@@H]1COCCN1C2=O
F [1]: 29.9%
Cmax [2]: 397 ng/mL
AUClast [3]: 2078 ng·h/mL
Cmax [4]: 1476 ng/g
AUClast [5]: 8806 ng·h/g
Ratio [6]: 3.7
Ratio AUC [7]: 4.2
remaining at 4 h, 1 µM [8]: 97.7%
remaining at 4 h, 1 µM [9]: 95.8%
